Source: US12240862B2, “Inhibitors of peptidylarginine deiminases” (Gilead Sciences, Inc., priority 2020, dated 2025)
pIC50: −log10 of the molar value.

biological target: T1, human PAD4 (Homo sapiens, UniProt Q9UM07); test: In vitro PAD4 BAEE biochemical assay; conditions: human PAD4, BAEE substrate; 5 nM PAD4, 2 mM calcium chloride, 3 mM BAEE; geometric mean of multiple experiments
T1 construct: human PAD4 (NM_012387), A2P663, was PCR amplified; His-SUMO (N, cleaved yes); made in house; host or cells: E. coli BL21(DE3)
T1 sequence (Q9UM07 2-663): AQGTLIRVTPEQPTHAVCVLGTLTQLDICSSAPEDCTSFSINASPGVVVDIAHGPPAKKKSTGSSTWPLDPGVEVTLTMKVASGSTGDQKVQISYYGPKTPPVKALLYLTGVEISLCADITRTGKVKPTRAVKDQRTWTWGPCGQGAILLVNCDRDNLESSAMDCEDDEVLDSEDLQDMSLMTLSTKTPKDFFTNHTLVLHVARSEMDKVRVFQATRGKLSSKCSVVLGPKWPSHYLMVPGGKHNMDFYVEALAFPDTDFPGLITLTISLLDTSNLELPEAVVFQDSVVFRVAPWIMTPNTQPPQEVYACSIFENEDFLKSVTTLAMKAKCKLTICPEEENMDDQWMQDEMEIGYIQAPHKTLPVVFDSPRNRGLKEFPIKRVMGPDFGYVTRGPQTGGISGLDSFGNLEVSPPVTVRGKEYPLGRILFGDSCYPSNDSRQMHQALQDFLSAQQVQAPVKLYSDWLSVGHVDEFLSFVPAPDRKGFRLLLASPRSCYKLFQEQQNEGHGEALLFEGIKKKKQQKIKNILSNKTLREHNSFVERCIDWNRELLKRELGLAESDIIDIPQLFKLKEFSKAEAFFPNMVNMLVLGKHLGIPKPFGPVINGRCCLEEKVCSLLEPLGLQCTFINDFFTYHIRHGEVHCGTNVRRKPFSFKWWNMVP
Outline: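 Ammonia release from BAEE deimination monitored by o-phthalaldehyde amine coupling (1 h, 25 °C) after EDTA stop. Final conditions: 5 nM tag-free recombinant human PAD4 (E. coli), 2 mM CaCl2, 3 mM BAEE, pH 7.6 MOPS with DTT; 30 min compound preincubation, then 2 h reaction at 25 °C.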

In order of rising pIC50:
1. COc1cc(C(=O)NC[C@@H]2CCCN2)cc2nc(-c3cc4ccc(N(C(F)F)S(C)(=O)=O)nc4n3CC3CC3)c(C)n12 [Example 303, 2-[1-(cyclopropylmethyl)-6-[difluoromethyl (methylsulfonyl)amino]pyrrolo[2,3-b]pyridin-2-yl]-5-methoxy-3-methyl-~{N}-[[(2~{S})-pyrrolidin-2-yl]methyl] imidazo[1,2-a] pyridine-7-carboxamide]  4.63
2. CCc1ccc2cc(-c3nc4cc(C(=O)N5[C@H]6CC[C@@H]5[C@H](N)C6)cc(OC)n4c3C)n(-c3ccccc3)c2n1 [Example 512, [(1~{R},2~{R},4~{S})-2-amino-7-azabicyclo [2.2.1]heptan-7-yl]-[2-(6-ethyl-1-phenylpyrrolo [2,3-b]pyridin-2-yl)-5-methoxy-3-methylimidazo [1,2-a]pyridin-7-yl]methanone]  4.75
3. COc1cc(C(=O)N2C[C@@H]3CC[C@H]2CN3)cc2nc(-c3cc4ccc([C@@H](C)NC(=O)C56CC(F)(C5)C6)nc4n3CC3CC3)c(C)n12 [Example 3, ~{N}-[(1~{R})-1-[1-(cyclopropylmethyl)-2-[7-[(1~{S},4~{S})-2,5-diazabicyclo[2.2.2]octane-2-carbonyl]-5-methoxy-3-methylimidazo[1,2-a]pyridin-2-yl]pyrrolo [2,3-b]pyridin-6-yl]ethyl]-3-fluorobicyclo [1.1.1] pentane-1-carboxamide]  4.96
4. COc1cc(C(=O)N2CCC[C@@H](N)C2)cc2nc(-c3cc4ccc(O[C@@H](C)C(=O)N(C)C)nc4n3CC3CC3)c(C)n12 [Example 617, (2~{S})-2-[2-[7-[(3~{R})-3-aminopiperidine-1-carbonyl]-5-methoxy-3-methylimidazo[1,2-a]pyridin-2-yl]-1-(cyclopropylmethyl)pyrrolo [2,3-b]pyridin-6-yl]oxy-~{N},~{N}-dimethylpropanamide]  5.16
5. COc1cc(C(=O)N2C[C@H]3CCN[C@H]3C2)cc2nc(-c3cc4ccc([C@@H](C)NC(=O)C56CC(F)(C5)C6)nc4n3CC3CC3)c(C)n12 [Example 21]  5.69
6. ~{N}-[2-[7-[(3~{S}, 4~{R})-3-amino-4- hydroxypiperidine-1- carbonyl]-3-ethyl- 5-methoxyimidazo[1,2- a]pyridin-2-yl]-1- (cyclopropylmethyl)pyrrolo [2,3-b]pyridin-6-yl]-~{N}- (difluoromethyl) methanesulfonamide [Example 400]  6.07
7. COc1cc(C(=O)N2[C@H]3CC[C@@H]2[C@H](N)C3)cc2nc(-c3cc4ccc(N5CCCC(c6ccccc6)S5(=O)=O)nc4n3CC3CC3)c(C)n12 (some centres unmarked) [Example 469, [(1~{R},2~{R},4~{S})-2-amino-7-azabicyclo [2.2.1]heptan-7-yl]-[2-[1-(cyclopropylmethyl)-6-(1,1-dioxo-6-phenylthiazinan-2-yl)pyrrolo[2,3-b]pyridin-2-yl]-5-methoxy-3-methylimidazo[1,2-a]pyridin-7-yl]methanone]  6.11
8. COc1cc(C(=O)N[C@@H]2CC[C@H](C)NC2)cc2nc(-c3cc4ccc(N(C(F)F)S(C)(=O)=O)nc4n3CC3CC3)c(C)n12 [Example 315, 2-[1-(cyclopropylmethyl)-6-[difluoromethyl (methylsulfonyl)amino]pyrrolo[2,3-b]pyridin-2-yl]-5-methoxy-3-methyl-~{N}-[(3~{R},6~{S})-6-methylpiperidin-3-yl]imidazo[1,2-a] pyridine-7-carboxamide]  6.46
9. CCc1ccc2cc(-c3nc4cc(C(=O)N5[C@H]6CC[C@@H]5[C@H](N)C6)cc(OC)n4c3C3CC3)n(CC3CC3)c2n1 [Example 578, [(1~{R},2~{R},4~{S})-2-amino-7-azabicyclo [2.2.1]heptan-7-yl]-[3-cyclopropyl-2-[1-(cyclopropylmethyl)-6-ethylpyrrolo[2,3-b]pyridin-2-yl]-5-methoxyimidazo [1,2-a]pyridin-7-yl]methanone]  6.46
10. COc1cc(C(=O)N2[C@H]3CC[C@@H]2[C@H](N)C3)cc2nc(-c3cc4ccc([C@@H](C)NC(=O)c5ccccc5)nc4n3CC34CC(C3)C4)c(C)n12 [Example 489, ~{N}-[(1~{R})-1-[2-[7-[(1~{R},2~{R},4~{S})-2-amino-7-azabicyclo[2.2.1]heptane-7-carbonyl]-5-methoxy-3-methylimidazo[1,2-a]pyridin-2-yl]-1-(1-bicyclo [1.1.1]pentanylmethyl)pyrrolo[2,3-b]pyridin-6-yl]ethyl]benzamide]  6.75
11. COc1cc(C(=O)N2[C@H]3CC[C@@H]2[C@H](N)C3)cc2nc(-c3cc4ccc(C(C)(C)CC(=O)N5CC(F)(F)C5)nc4n3CC3CC3)c(C)n12 [Example 538, 3-[2-[7-[(1~{R},2~{R}, 4~{S})-2-amino-7-azabicyclo[2.2.1]heptane-7-carbonyl]-5-methoxy-3-methylimidazo[1,2-a]pyridin-2-yl]-1-(cyclopropylmethyl)pyrrolo [2,3-b]pyridin-6-yl]-1-(3,3-difluoroazetidin-1-yl)-3-methylbutan-1-one]  6.76
12. COc1cc(C(=O)N2[C@H]3CC[C@@H]2[C@H](N)C3)cc2nc(-c3cc4ccc(C(C)(C)O)nc4n3CC3CC3)c(C)n12 [Example 574, [(1~{R},2~{R},4~{S})-2-amino-7-azabicyclo [2.2.1]heptan-7-yl]-[2-[1-(cyclopropylmethyl)-6-(2-hydroxypropan-2-yl)pyrrolo [2,3-b]pyridin-2-yl]-5-methoxy-3-methylimidazo[1,2-a]pyridin-7-yl]methanone]  6.96
13. COc1cc(C(=O)N2[C@H]3CC[C@@H]2[C@H](N)C3)cc2nc(-c3cc4ccc([C@@H](C)NC(=O)N(C)Cc5ccccc5)nc4n3CC3CC3)c(C)n12 [Example 240, 3-[(1~{R})-1-[2-[7-[(1~{R},2~{R},4~{S})-2-amino-7-azabicyclo[2.2.1]heptane-7-carbonyl]-5-methoxy-3-methylimidazo [1,2-a]pyridin-2-yl]-1-(cyclopropylmethyl)pyrrolo [2,3-b]pyridin-6-yl]ethyl]-1-benzyl-1-methylurea]  7.07
14. COc1cc(C(=O)N2[C@H]3CC[C@@H]2[C@H](N)C3)cc2nc(-c3cc4ccc(N5C(C)CCCCS5(=O)=O)nc4n3CC3CC3)c(C)n12 (some centres unmarked) [Example 445, [(1~{R},2~{R},4~{S})-2-amino-7-azabicyclo[2.2.1]heptan-7-yl]-[2-[1-(cyclopropylmethyl)-6-(3-methyl-1,1-dioxothiazepan-2-yl)pyrrolo [2,3-b]pyridin-2-yl]-5-methoxy-3-methylimidazo[1,2-a]pyridin-7-yl]methanone]  7.09
15. COc1cc(C(=O)N2[C@H]3CC[C@@H]2[C@H](N)C3)cc2nc(-c3cc4ccc([C@@H](C)NC(=O)c5ccc(C#N)cc5)nc4n3CC3CC3)c(C)n12 [Example 123, ~{N}-[(1~{R})-1-[2-[7-[(1~{R},2~{R},4~{S})-2-amino-7-azabicyclo[2.2.1]heptane-7-carbonyl]-5-methoxy-3-methylimidazo [1,2-a]pyridin-2-yl]-1-(cyclopropylmethyl)pyrrolo [2,3-b]pyridin-6-yl]ethyl]-4-cyanobenzamide]  7.10
16. COc1cc(C(=O)N2[C@H]3CC[C@@H]2[C@H](N)C3)cc2nc(-c3cc4ccc([C@@H](C)NC(=O)c5cocn5)nc4n3CC3CC3)c(C)n12 [Example 105, ~{N}-[(1~{R})-1-[2-[7-[(1~{R},2~{R},4~{S})-2-amino-7-azabicyclo[2.2.1]heptane-7-carbonyl]-5-methoxy-3-methylimidazo [1,2-a]pyridin-2-yl]-1-(cyclopropylmethyl)pyrrolo [2,3-b]pyridin-6-yl]ethyl]-1,3-oxazole-4-carboxamide]  7.25
17. COc1cc(C(=O)N2[C@H]3CC[C@@H]2[C@H](N)C3)cc2nc(-c3cc4ccc([C@@H](C)NC(=O)N[C@@H](C)c5cccnc5)nc4n3CC3CC3)c(C3CC3)n12 [Example 217, 1-[(1~{R})-1-[2-[7-[(1~{R},2~{R},4~{S})-2-amino-7-azabicyclo[2.2.1]heptane-7-carbonyl]-3-cyclopropyl-5-methoxyimidazo [1,2-a]pyridin-2-yl]-1-(cyclopropylmethyl)pyrrolo [2,3-b]pyridin-6-yl]ethyl]-3-[(1~{S})-1-pyridin-3-ylethyl]urea]  7.34
18. COc1cc(C(=O)N2[C@H]3CC[C@@H]2[C@H](N)C3)cc2nc(-c3cc4ccc([C@@H](C)NC(=O)C5(CO)CC5)nc4n3CC3CC3)c(C)n12 [Example 128, ~{N}-[(1~{R})-1-[2-[7-[(1~{R},2~{R},4~{S})-2-amino-7-azabicyclo[2.2.1]heptane-7-carbonyl]-5-methoxy-3-methylimidazo [1,2-a]pyridin-2-yl]-1-(cyclopropylmethyl)pyrrolo [2,3-b]pyridin-6-yl]ethyl]-1-(hydroxymethyl) cyclopropane-1-carboxamide]  7.45
19. COc1cc(C(=O)N2[C@H]3CC[C@@H]2[C@H](N)C3)cc2nc(-c3cc4ccc([C@@H](C)NC(=O)c5cnc(C)o5)nc4n3CC3CC3)c(C)n12 [Example 80, ~{N}-[(1~{R})-1-[2-[7-[(1~{R},2~{R},4~{S})-2-amino-7-azabicyclo[2.2.1]heptane-7-carbonyl]-5-methoxy-3-methylimidazo [1,2-a]pyridin-2-yl]-1-(cyclopropylmethyl)pyrrolo [2,3-b]pyridin-6-yl]ethyl]-2-methyl-1,3-oxazole-5-carboxamide]  7.54
20. COc1cc(C(=O)N2CCC[C@@H](N)C2)cc2nc(-c3cc4ccc([C@@H](C)NC(=O)[C@H]5[C@@H]6CC(F)(F)C[C@@H]65)nc4n3CC3CC3)c(C)n12 [Example 9, (1~{R},5~{S})-~{N}-[(1~{R})-1-[2-[7-[(3~{R})-3-aminopiperidine-1-carbonyl]-5-methoxy-3-methylimidazo[1,2-a]pyridin-2-yl]-1-(cyclopropylmethyl)pyrrolo[2,3-b]pyridin-6-yl]ethyl]-3,3-difluorobicyclo[3.1.0] hexane-6-carboxamide]  7.55
